These are literature values, as cited in PubChem BioAssay AID1259409 (Chemical Carcinogenesis Research Information System (CCRIS), 2018).

The series has as its system rodent chemically induced tumor inhibition, incidence and multiplicity. The series can be described thus: CCRIS tumor inhibitor studies.

Consider `CC(C)(C)C1=CC(=O)C=C(C(C)(C)C)C1=O`, for which the “tumour outcome (control, treated, inhibition, significance)” value (Carcinogen: 7,12-DIMETHYLBENZ[A]ANTHRACENE, 57-97-6, Dose [Inhibitor]: 0, 200 MG/KG BW/D FOR 3 WK BEGINNING 2 WK PRIOR TO CARCINOGEN DOSE (STUDY DURATION: 24 WK), Route [Inhibitor]: INTRAPERITONEAL, Species: RAT, Strain/Sex: SPRAGUE-DAWLEY/FEMALE, Target Tissue: Type of Lesion: MAMMARY GLAND: TUMOR, Dose [Carcinogen]: 33.3 MG/KG BW IN 0.25 ML CORN OIL ONCE AT 50 D OF AGE, Promoter: NONE USED) is reported as 91%, 68%, 25%, not calculated.
In the case of `Cc1cccc(C(=O)/C=C/c2cccc(O)c2)c1`, the “tumour outcome (control, treated, inhibition, significance)” value (Carcinogen: 7,12-DIMETHYLBENZ[A]ANTHRACENE, 57-97-6, Dose [Inhibitor]: 0, 1.62 MICROMOLAR 2/WK FOR 18 WK APPLIED SIMULTANEOUSLY WITH PROMOTER DOSE (STUDY DURATION: 18 WK), Route [Inhibitor]: DERMAL, Species: MOUSE, Strain/Sex: ICR/FEMALE, Target Tissue: Type of Lesion: SKIN: TUMOR, Dose [Carcinogen]: 100 UG ONCE, Promoter: 12-O-TETRADECANOYLPHORBOL-13-ACETATE, 16561-29-8) is reported as 90%, 20%, 78%, not calculated.
Regarding `COC1=CC(=O)[C@]2(C=C1OC)OC[C@H]1Oc3c(ccc4c3C=CC(C)(C)O4)C(=O)[C@H]12`, the “tumour outcome (control, treated, inhibition, significance)” value (Carcinogen: 7,12-DIMETHYLBENZ[A]ANTHRACENE, 57-97-6, Dose [Inhibitor]: 0, 85 NMOL 2/WK BEGINNING 1 WK POST CARCINOGEN DOSE (STUDY DURATION: 20 WK), Route [Inhibitor]: DERMAL, Species: MOUSE, Strain/Sex: ICR/FEMALE, Target Tissue: Type of Lesion: SKIN: PAPILLOMA, Dose [Carcinogen]: 390 NMOL, Promoter: 12-O-TETRADECANOYLPHORBOL-13-ACETATE, 16561-29-8) is reported as 100%, 20%, 80%, not calculated.
In the case of `CCCCCCC(=O)O[C@H]1CC[C@H]2[C@@H]3CCC4=CC(=O)CC[C@]4(C)[C@H]3CC[C@]12C`, for the setting “Carcinogen: 7,12-DIMETHYLBENZ[A]ANTHRACENE, 57-97-6, Dose [Inhibitor]: 0, 6 MG/100 G BW 1/WK FOR 150 D BEGINNING POST CARCINOGEN TREATMENT (STUDY DURATION: 150 D), Route [Inhibitor]: SUBCUTANEOUS, Species: RAT, Strain/Sex: WISTAR/FEMALE, Target Tissue: Type of Lesion: MAMMARY GLAND: ADENOCARCINOMA, Dose [Carcinogen]: 4 MG IN 0.1 ML OF SESAME OIL INJECTED ONCE INTO THE EXPOSED MAMMARY TISSUE OF HYPERPROLACTINEMIC RATS ON DAY 73 OF AGE, Promoter: NONE USED”, the “tumour outcome (control, treated, inhibition, significance)” value is 8/11 (73%), 2/8 (25%), 66%, p<0.05.
Take `C[C@]12CC[C@@H]3c4ccc(OC(=O)c5ccccc5)cc4CC[C@H]3[C@@H]1CC[C@@H]2O`: the “tumour outcome (control, treated, inhibition, significance)” value is, setting by setting: (Carcinogen: 1,2-DIMETHYLHYDRAZINE DIHYDROCHLORIDE, 306-37-6, Dose [Inhibitor]: 0, 15 UG/KG IN PEANUT OIL ON DAYS 1 AND 3 OF STUDY THEN 1/WK FOR 30 WK (STUDY DURATION: 31 WK), Route [Inhibitor]: SUBCUTANEOUS, Species: RAT, Strain/Sex: SPRAGUE-DAWLEY/MALE, Target Tissue: Type of Lesion: COLON: ADENOCARCINOMA, Dose [Carcinogen]: 9 MG/KG 1/WK FOR 7 WK THEN 19.4 MG/KG 1/WK FOR 13 WK, Promoter: NONE USED) 14/14 (100%), 14/14 (100%), 0%, not significant; (Carcinogen: 1,2-DIMETHYLHYDRAZINE DIHYDROCHLORIDE, 306-37-6, Dose [Inhibitor]: 0, 15 UG/KG IN PEANUT OIL ON DAYS 1 AND 3 OF STUDY THEN 1/WK FOR 30 WK (STUDY DURATION: 31 WK), Route [Inhibitor]: SUBCUTANEOUS, Species: RAT, Strain/Sex: SPRAGUE-DAWLEY/MALE, Target Tissue: Type of Lesion: SMALL INTESTINE: ADENOCARCINOMA, Dose [Carcinogen]: 9 MG/KG 1/WK FOR 7 WK THEN 19.4 MG/KG 1/WK FOR 13 WK, Promoter: NONE USED) 13/14 (93%), 11/14 (79%), 15%, not significant.
Regarding `C=C1CC[C@H](O)C/C1=C/C=C1\CCC[C@]2(C)[C@@H]([C@H](C)CC[C@@H](O)C(C)(C)O)CC[C@@H]12`, the “tumour outcome (control, treated, inhibition, significance)” value is, setting by setting: (Carcinogen: N-N-DIETHYLNITROSAMINE [55-18-5], N-METHYL-N-NITROSOUREA [684-93-5], N,N'-DIMETHYLHYDRAZINE [540-73-8], N-BUTYL-N-(4-HYD, Carcinogen: N-N-DIETHYLNITROSAMINE [55-18-5], N-METHYL-N-NITROSOUREA [684-93-5], N,N'-DIMETHYLHYDRAZINE [540-73-8], N-BUTYL-N-(4-HYD, Dose [Inhibitor]: 1 PPM IN DIET FOR 25 WK BEGINNING 1 WK POST LAST CARCINOGEN DOSE (STUDY DURATION: 30 WK), Route [Inhibitor]: ORAL, Species: RAT, Strain/Sex: F344/MALE, Target Tissue: Type of Lesion: COLON: ADENOCARCINOMA, Dose [Carcinogen]: 100 MG/KG BW DEN IP ONCE ON DAY 0, 20 MG/KG BW MNU IP 4X ON DAYS 2, 5, 8, 11, 40 MG/KG BW DMH SC ON DAYS 14, 17, 20, 23;, Dose [Carcinogen]: 100 MG/KG BW DEN IP ONCE ON DAY 0, 20 MG/KG BW MNU IP 4X ON DAYS 2, 5, 8, 11, 40 MG/KG BW DMH SC ON DAYS 14, 17, 20, 23;, Promoter: NONE) 14/18 (77.8%), 10/14 (71.4%), 8%, not significant; (Carcinogen: N-N-DIETHYLNITROSAMINE [55-18-5], N-METHYL-N-NITROSOUREA [684-93-5], N,N'-DIMETHYLHYDRAZINE [540-73-8], N-BUTYL-N-(4-HYD, Carcinogen: N-N-DIETHYLNITROSAMINE [55-18-5], N-METHYL-N-NITROSOUREA [684-93-5], N,N'-DIMETHYLHYDRAZINE [540-73-8], N-BUTYL-N-(4-HYD, Dose [Inhibitor]: 1 PPM IN DIET FOR 25 WK BEGINNING 1 WK POST LAST CARCINOGEN DOSE (STUDY DURATION: 30 WK), Route [Inhibitor]: ORAL, Species: RAT, Strain/Sex: F344/MALE, Target Tissue: Type of Lesion: COLON: ADENOMA, Dose [Carcinogen]: 100 MG/KG BW DEN IP ONCE ON DAY 0, 20 MG/KG BW MNU IP 4X ON DAYS 2, 5, 8, 11, 40 MG/KG BW DMH SC ON DAYS 14, 17, 20, 23;, Dose [Carcinogen]: 100 MG/KG BW DEN IP ONCE ON DAY 0, 20 MG/KG BW MNU IP 4X ON DAYS 2, 5, 8, 11, 40 MG/KG BW DMH SC ON DAYS 14, 17, 20, 23;, Promoter: NONE) 6/18 (33.3%), 3/14 (21.4%), 36%, not significant; (Carcinogen: N-N-DIETHYLNITROSAMINE [55-18-5], N-METHYL-N-NITROSOUREA [684-93-5], N,N'-DIMETHYLHYDRAZINE [540-73-8], N-BUTYL-N-(4-HYD, Carcinogen: N-N-DIETHYLNITROSAMINE [55-18-5], N-METHYL-N-NITROSOUREA [684-93-5], N,N'-DIMETHYLHYDRAZINE [540-73-8], N-BUTYL-N-(4-HYD, Dose [Inhibitor]: 5 PPM IN DIET FOR 25 WK BEGINNING 1 WK POST LAST CARCINOGEN DOSE (STUDY DURATION: 30 WK), Route [Inhibitor]: ORAL, Species: RAT, Strain/Sex: F344/MALE, Target Tissue: Type of Lesion: COLON: ADENOCARCINOMA, Dose [Carcinogen]: 100 MG/KG BW DEN IP ONCE ON DAY 0, 20 MG/KG BW MNU IP 4X ON DAYS 2, 5, 8, 11, 40 MG/KG BW DMH SC ON DAYS 14, 17, 20, 23;, Dose [Carcinogen]: 100 MG/KG BW DEN IP ONCE ON DAY 0, 20 MG/KG BW MNU IP 4X ON DAYS 2, 5, 8, 11, 40 MG/KG BW DMH SC ON DAYS 14, 17, 20, 23;, Promoter: NONE) 14/18 (77.8%), 5/14 (35.7%), 54%, p<0.05; (Carcinogen: N-N-DIETHYLNITROSAMINE [55-18-5], N-METHYL-N-NITROSOUREA [684-93-5], N,N'-DIMETHYLHYDRAZINE [540-73-8], N-BUTYL-N-(4-HYD, Carcinogen: N-N-DIETHYLNITROSAMINE [55-18-5], N-METHYL-N-NITROSOUREA [684-93-5], N,N'-DIMETHYLHYDRAZINE [540-73-8], N-BUTYL-N-(4-HYD, Dose [Inhibitor]: 5 PPM IN DIET FOR 25 WK BEGINNING 1 WK POST LAST CARCINOGEN DOSE (STUDY DURATION: 30 WK), Route [Inhibitor]: ORAL, Species: RAT, Strain/Sex: F344/MALE, Target Tissue: Type of Lesion: COLON: ADENOMA, Dose [Carcinogen]: 100 MG/KG BW DEN IP ONCE ON DAY 0, 20 MG/KG BW MNU IP 4X ON DAYS 2, 5, 8, 11, 40 MG/KG BW DMH SC ON DAYS 14, 17, 20, 23;, Dose [Carcinogen]: 100 MG/KG BW DEN IP ONCE ON DAY 0, 20 MG/KG BW MNU IP 4X ON DAYS 2, 5, 8, 11, 40 MG/KG BW DMH SC ON DAYS 14, 17, 20, 23;, Promoter: NONE) 6/18 (33.3%), 0/14 (0.0%), 100%, not significant.
For `CC(=O)O[C@@H]1[C@H]2[C@@H](OC(=O)c3ccccc3)[C@@H](OC(=O)c3ccccc3)[C@]3(C)[C@@H](OC(=O)c4ccccc4)[C@@H](OC(=O)c4ccccc4)C[C@@H](C)[C@@]13OC2(C)C`, the “tumour outcome (control, treated, inhibition, significance)” value by setting is: (Carcinogen: 7,12-DIMETHYLBENZ[A]ANTHRACENE, 57-97-6, Dose [Inhibitor]: 0, 85 NMOL IN 0.1 ML ACETONE 2/WK APPLIED 1 HR POST EACH PROMOTER DOSE BEGINNING 1 WK POST CARCINOGEN DOSE AND CONTINUIN, Route [Inhibitor]: DERMAL, Species: MOUSE, Strain/Sex: ICR/FEMALE, Target Tissue: Type of Lesion: SKIN: TUMOR, Dose [Carcinogen]: 390 NMOL IN 0.1 ML ACETONE ONCE, Promoter: 12-O-TETRADECANOYLPHORBOL-13-ACETATE, 16561-29-8) 100%, 52%, 48%, not calculated; (Carcinogen: 7,12-DIMETHYLBENZ[A]ANTHRACENE, 57-97-6, Dose [Inhibitor]: 0, 85 NMOL IN 0.1 ML ACETONE 2/WK APPLIED 1 HR PRIOR TO EACH PROMOTER DOSE BEGINNING 1 WK POST CARCINOGEN DOSE AND CONTI, Route [Inhibitor]: DERMAL, Species: MOUSE, Strain/Sex: ICR/FEMALE, Target Tissue: Type of Lesion: SKIN: TUMOR, Dose [Carcinogen]: 390 NMOL IN 0.1 ML ACETONE ONCE, Promoter: 12-O-TETRADECANOYLPHORBOL-13-ACETATE, 16561-29-8) 100%, 86%, 14%, not calculated.
